Laboratory results as given in the METLIN SMRT retention time set (Domingo-Almenara et al. 2019).

Assay: gradient 5% acetonitrile 3 min, to 50% in 2 min, to 85% in 15 min, held 3 min, 100 µL/min
Settings: column: Zorbax Extend-C18 2.1 x 50 mm; eluents: water / acetonitrile, 0.1% formic acid
In short: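 Over 3 months, pure standards in mixtures of ~100 molecules were run by HPLC coupled to a quadrupole time-of-flight mass spectrometer in positive and negative ionization mode. The column was a Zorbax Extend-C18 (2.1 × 50 mm, 1.8 μm) at 100 μL/min, eluted with water and acetonitrile each holding 0.1% formic acid, with 40 μL dead and 900 μL dwell volumes. Retention time was determined from adduct peaks chosen by software and checked manually.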

Row | RP-LC retention time [s] | Structure (SMILES)
1 | 911 | CCCNC(=O)c1cnn(-c2cc(-c3nc(C4CC4)no3)ccn2)c1C
2 | 803 | O=C(NC1CCCC1)c1ccc2ccnc(N3CCN(c4ccc(F)cc4)CC3)c2c1
3 | 940 | CC(C)Cn1cc(CCNC(=O)c2ccc(C(F)(F)F)cc2)c2cccnc21
4 | 662 | CN(C)c1ccc(CN2C(=O)CN(S(C)(=O)=O)CC2(C)C(=O)NCc2ccc(Cl)cc2)cc1 (stereo not drawn)
5 | 669 | COc1ccc2c(C)c(C(=O)NCCn3ncccc3=O)oc2c1
6 | 933 | CCOC(=O)c1cccc(NC(=O)C2CCCN(c3ccc(=O)n(-c4ccc(F)cc4)n3)C2)c1 (stereo not drawn)
7 | 695 | O=C(N[C@H]1C[C@@H]2C[C@H]1N(C(=O)Cc1c(F)cccc1Cl)C2)c1cccnc1
8 | 650 | O=C(NCCN1CCCCC1)c1cc2c(s1)CCN(C(=O)c1ccc(Cl)cc1)C2
9 | 950 | Cc1cccc(OCCc2noc(C3CN(S(=O)(=O)N(C)C)C3)n2)c1
10 | 864 | CN(CCc1noc(-c2ccc(F)cc2)n1)C(=O)Nc1ccc(F)cc1
11 | 702 | CCNC(=O)c1cc(N2CCCC2)nc2c(C)cccc12
12 | 568 | O=C(C1CCN(c2ccc(-c3cccs3)nn2)CC1)N1CCN(c2ccccn2)CC1
13 | 766 | Cc1ccc(-c2cc3n(n2)CCCN(C(=O)c2cnccn2)C3)cc1
14 | 767 | Cc1ccc(S(=O)(=O)N2CC3CN(C(=O)NCc4ccco4)CC(C2)O3)cc1
15 | 855 | COc1ccccc1CC(=O)Nc1ccc2c(c1)Sc1ncccc1C(=O)N2C(C)C
16 | 1080 | Cc1nc2cc(-c3noc(-c4ccccc4C(F)(F)F)n3)ccc2o1
17 | 693 | Cc1noc(-c2ccnc(-n3ncc(C(=O)N4CCOCC4)c3C)c2)n1
18 | 738 | CCc1noc(NC(C)=O)c1-c1ccc(OC)c(S(=O)(=O)Nc2cccc(C#N)c2)c1
19 | 1180 | CCN(C(=O)CCCC(=O)OC)c1nc(-c2ccc(C)cc2)cs1
20 | 1020 | Cc1ccc(-c2nnc(-c3nn(C)c4c3CN(S(=O)(=O)c3ccccc3Cl)CC4)o2)cc1
21 | 1410 | Cc1ccccc1-c1noc(-c2cccnc2N2CCN(c3ccccc3)CC2)n1
22 | 620 | Cn1cc(CCN2CCN(C(=O)c3ccc(Br)cc3)CC2)c2cccnc21

Row | RP-LC retention time [s] | Structure (SMILES)
23 | 860 | O=C(NCc1cccs1)C(=O)NCC1(c2cccs2)CC1
24 | 843 | O=C(Cc1ccc(Cl)s1)Nc1nnc(-c2cc3ccccc3o2)o1
25 | 669 | CCCN1C(=O)C2CCC(=O)N2c2ccc(C(=O)NC(C)C)cc21 (stereo not drawn)
26 | 738 | O=C(NCC(O)(c1ccccc1)C(F)(F)F)C(=O)Nc1ccon1 (stereo not drawn)
27 | 629 | Cc1cnc(-c2ccccc2)n1CCNS(=O)(=O)c1ccccc1
28 | 720 | Cc1noc(C)c1CC(=O)N1CCC2(CC1)C(=O)N(C)c1ccccc12
29 | 608 | O=C(Nc1ccccc1C(=O)NCCCN1CCN(C2CCCCC2)CC1)C1=CSCCO1
30 | 862 | CCCN1C(=O)Cc2ccccc2C1C(=O)NC1CCCCCC1 (stereo not drawn)
31 | 680 | O=C(NCc1ccc(F)cc1)NCc1cccn1Cc1cccc(F)c1
32 | 1060 | CC(C)(C)CC(=O)N1CCC(Oc2nccnc2N2CCc3ccccc32)C1 (stereo not drawn)
33 | 924 | CCOC(=O)c1cccc(NC(=O)c2cnc(-c3ccccc3)nc2-c2ccncc2)c1
34 | 588 | Cc1nn(CC(=O)NCCCN(C)Cc2ccccc2)c(=O)c2noc(C)c12
35 | 830 | CCOC(=O)C1CCCN(S(=O)(=O)c2cccs2)C1 (stereo not drawn)
36 | 912 | CCOC(=O)c1nc(Nc2cc(F)ccc2F)c2ccccc2n1
37 | 935 | CC(=O)N1c2ccc(S(=O)(=O)N3CCCC3C(=O)Nc3nc4ccc(C)cc4s3)cc2CC1C (stereo not drawn)
38 | 904 | CCOC(=O)c1nc(NCCc2ccccc2Cl)c2c(C)noc2n1
39 | 1110 | CCCCC(=O)N1CCN(c2nc3ccccc3n(CC(C)C)c2=O)CC1
40 | 627 | CCOc1ccccc1N1CCN(Cc2nc3nc(C)cc(N4CCCC4)n3n2)CC1
41 | 923 | Cc1cccc(CNC(=O)CCc2conc2-c2ccccc2)c1
42 | 771 | CC(C)(C)c1noc(-c2cccnc2-n2cnc(C(=O)NC3CCCCC3)c2)n1
43 | 1300 | CCc1nc(-c2cccc(-c3noc(COc4ccccc4)n3)c2)cs1
44 | 1140 | O=C(NCC1CCCO1)c1ccc(Nc2c(-c3ccccc3)nc3cnccn23)cc1 (stereo not drawn)

Row | RP-LC retention time [s] | Structure (SMILES)
45 | 797 | COc1ccc(NC(=O)C2CCCN(c3nc4cccnc4s3)C2)cc1 (stereo not drawn)
46 | 1110 | CSc1sc(C)cc1-c1nsc(=O)o1
47 | 990 | Cc1nn(-c2nc3ccccc3[nH]2)c2c1C(=O)CC(c1ccccc1)C2 (stereo not drawn)
48 | 658 | COCc1nc2cccnc2n1C1CCN(C(=O)Nc2ccc3c(c2)OCO3)CC1
49 | 810 | COC1CCC12CCN(C(=O)CC(C)C)CC2 (stereo not drawn)
50 | 706 | CCC1CCCCN1C(=O)c1cnc2nc(C)ccc2c1Nc1ccc(C)cc1C (stereo not drawn)
51 | 760 | Cc1noc(C)c1CNC(=O)CCCc1ccccc1
52 | 692 | CCc1ccccc1NC(=O)Cn1cnc2nc(N3CCCC(C(=O)NC4CC4)C3)sc2c1=O (stereo not drawn)
53 | 842 | CCC(C)NC(=O)C1CCN(S(=O)(=O)c2c(C)nn(-c3ccc(F)cc3)c2C)CC1 (stereo not drawn)
54 | 776 | Cc1cccc(NC(=O)c2cnn3c2CCCC3)c1
55 | 550 | Cc1ncsc1CN1CCC(Cc2ncc(C)n2Cc2ccccc2)C1 (stereo not drawn)
56 | 784 | CC(C)CCNC(=O)Nc1ccc2c(c1)CCN2S(C)(=O)=O
57 | 720 | Cc1c(Cl)cccc1NC(=O)N(C)CC1CCOC1 (stereo not drawn)
58 | 774 | O=C(Nc1cccn2nc(C3CCC3)nc12)C1CCCO1 (stereo not drawn)
59 | 693 | CCCCC(=O)N1CCN(c2cc(C)nc(Nc3ccc(C)cc3)n2)CC1
60 | 770 | O=C(NCCCn1ncccc1=O)c1cccc(-n2ccc3ccccc32)c1
61 | 724 | N#Cc1cccc(C(=O)N2CCc3cc(-c4ccno4)ccc32)c1
62 | 887 | Cc1nnc(-c2ccc3ccn(CC(=O)Nc4ccc(Cl)cc4F)c3c2)o1
63 | 678 | Cc1ccccc1-c1nc2cnccn2c1NCCC(=O)NC1CCCCC1
64 | 924 | COc1ccccc1C1NC(=O)NC(C)=C1C(=O)OC1CCCC1C (stereo not drawn)
65 | 881 | COCCCNC(=O)c1cc(-c2ccc(C)cc2)nc2n[nH]c(-c3ccc(C)cc3)c12

Row | Structure (SMILES) | RP-LC retention time [s]
66 | CN1CC[C@@]2(C)c3cc(OC(=O)Nc4ccccc4)ccc3N(C)[C@@H]12 | 718
67 | COC(C)C(O)(C(=O)OCC1=CCN2CC[C@H](O)[C@@H]12)C(C)C (stereo partly drawn) | 644
68 | CCN1CCN(C(=O)Cc2c(C)nc3nc(-c4ccccc4)nn3c2C)CC1 | 589
